Results taken from paper PMC12374823, “A Small Molecule Selectively Targets N-Myc to Suppress Neuroblastoma Cancer Progression” (International Journal of Biological Sciences, 2025).

Columns and labels:
[1] = target: T1, N-Myc (Homo sapiens, UniProt P04198); test: microscale thermophoresis (MST) with labeled purified N-Myc; supported by CETSA in cells; format: binding
T1 construct: gene MYCN; N-Myc^1-464
T1 sequence (P04198 1-464): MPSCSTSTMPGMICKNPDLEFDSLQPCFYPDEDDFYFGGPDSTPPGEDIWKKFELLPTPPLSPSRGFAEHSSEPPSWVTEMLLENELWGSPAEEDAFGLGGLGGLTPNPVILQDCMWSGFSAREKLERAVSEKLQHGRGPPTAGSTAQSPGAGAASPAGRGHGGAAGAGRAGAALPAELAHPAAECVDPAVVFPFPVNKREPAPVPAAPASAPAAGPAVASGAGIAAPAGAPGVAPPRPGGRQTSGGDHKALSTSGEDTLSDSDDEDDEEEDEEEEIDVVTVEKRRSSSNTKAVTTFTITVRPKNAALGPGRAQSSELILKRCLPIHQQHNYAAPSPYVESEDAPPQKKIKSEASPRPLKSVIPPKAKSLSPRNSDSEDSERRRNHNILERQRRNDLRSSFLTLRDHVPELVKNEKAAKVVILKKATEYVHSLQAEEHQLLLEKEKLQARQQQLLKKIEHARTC

[2] = target: T2, c-Myc (Homo sapiens, UniProt P01106); test: microscale thermophoresis (MST) with labeled recombinant c-Myc; format: binding
T2 construct: c-Myc^1-439
T2 sequence (P01106 16-454): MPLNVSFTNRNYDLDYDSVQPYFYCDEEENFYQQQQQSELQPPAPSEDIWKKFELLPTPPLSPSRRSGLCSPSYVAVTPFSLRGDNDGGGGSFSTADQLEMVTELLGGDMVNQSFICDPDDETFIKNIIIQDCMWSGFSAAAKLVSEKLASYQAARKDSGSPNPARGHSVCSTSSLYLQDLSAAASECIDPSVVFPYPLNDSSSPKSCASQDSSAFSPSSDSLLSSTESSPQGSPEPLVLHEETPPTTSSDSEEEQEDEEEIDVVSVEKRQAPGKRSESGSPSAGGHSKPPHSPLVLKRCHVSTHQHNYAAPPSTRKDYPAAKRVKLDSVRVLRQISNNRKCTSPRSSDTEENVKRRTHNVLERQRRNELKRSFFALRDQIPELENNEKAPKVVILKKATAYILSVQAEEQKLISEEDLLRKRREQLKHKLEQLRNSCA

Kd [1]: 1470 ± 520 nM | Kd [2]: 8.48 ± 2.61 µM
Structure (SMILES): COc1ccc(-n2nc3ccc(NC(=O)CBr)cc3n2)cc1 [N78]
